Where “and” joins values, the source holds several entries; their conditions need not be identical. Identical values can stand only once. Like-named read-outs stand apart in the source and are kept apart here.
Key:
HL-60 CELLS MIT[…] = molecular target: T1, HL-60 CELLS MIT[…] (Homo sapiens, UniProt O00142); experiment: Phosphorylation by thymidine kinase relative to thymidine; type: biochemical; conditions: thymidine at 400 µM
T1 construct: cytosol and mitochondrial TK's derived from the HL-60 human cell line; endogenous in cells; host or cells: HL-60
T1 sequence (O00142 34-265): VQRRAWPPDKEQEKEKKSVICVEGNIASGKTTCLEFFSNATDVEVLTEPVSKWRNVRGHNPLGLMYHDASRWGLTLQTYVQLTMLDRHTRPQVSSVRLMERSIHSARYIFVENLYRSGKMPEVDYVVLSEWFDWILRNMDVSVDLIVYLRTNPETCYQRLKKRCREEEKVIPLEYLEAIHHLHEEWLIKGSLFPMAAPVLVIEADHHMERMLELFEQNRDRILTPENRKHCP
Source text: (§1) It is generally accepted that the selective anti-herpes activity of 2′-fluoro-arabinosylpyrimidine nucleosides is associated in large measure with their ability to be recognized as good substrates for HSV-specified thymidine kinase (TK), but not by the host TK (14, 15). […] By contrast, FEAU is a very poor substrate for the host HL-60 derived TKs (13). […] Their data also indicate that, in uninfected Vero cells, FEAU would be phosphorylated at a very low rate in the presence of thymidine.

HSV-2 (STRAIN 333) TK = HSV-2 (STRAIN 333) TK (Human herpesvirus 2, UniProt P04407); experiment: as above; type: biochemical; conditions: thymidine at 400 µM
Chain of HSV-2 (STRAIN 333) TK (P04407 whole entry): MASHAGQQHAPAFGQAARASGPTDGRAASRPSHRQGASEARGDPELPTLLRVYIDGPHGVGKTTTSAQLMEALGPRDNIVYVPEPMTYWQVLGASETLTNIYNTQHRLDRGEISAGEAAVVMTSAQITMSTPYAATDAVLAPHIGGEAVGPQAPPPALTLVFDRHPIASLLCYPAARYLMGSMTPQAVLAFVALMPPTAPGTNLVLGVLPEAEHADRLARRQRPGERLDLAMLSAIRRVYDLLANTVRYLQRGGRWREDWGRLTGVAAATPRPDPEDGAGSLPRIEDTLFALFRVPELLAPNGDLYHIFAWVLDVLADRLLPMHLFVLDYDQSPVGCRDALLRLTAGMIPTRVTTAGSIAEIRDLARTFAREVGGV
Source text: as §1

HSV-1 (STRAIN KOS) TK = HSV-1 (STRAIN KOS) TK (Human herpesvirus 1, UniProt P17402); experiment: as above; type: biochemical; conditions: thymidine at 400 µM
Chain of HSV-1 (STRAIN KOS) TK (P17402 whole entry, looked up): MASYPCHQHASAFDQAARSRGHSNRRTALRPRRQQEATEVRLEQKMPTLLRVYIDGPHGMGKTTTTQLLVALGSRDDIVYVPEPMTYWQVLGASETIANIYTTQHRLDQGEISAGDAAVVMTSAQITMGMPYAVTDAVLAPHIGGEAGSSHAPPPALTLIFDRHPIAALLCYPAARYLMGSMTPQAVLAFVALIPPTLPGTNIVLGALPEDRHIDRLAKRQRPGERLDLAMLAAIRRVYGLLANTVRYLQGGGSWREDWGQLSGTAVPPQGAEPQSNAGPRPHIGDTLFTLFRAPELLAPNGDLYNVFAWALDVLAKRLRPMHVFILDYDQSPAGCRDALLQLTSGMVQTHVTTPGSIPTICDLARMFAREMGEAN
Source text: as §1

[1] = cited from earlier work
P-815 CELLS = experiment: Inhibition of thymidine incorporation into DNA; type: cell-based, rodent; conditions: Mus musculus, P815, read-out: ED50 FOR […] INC[…] DNA, P-815 CELLS; read-out: ED50 FOR INHIBITING THYMIDINE INCORPORATION INTO DNA, P-815 CELLS
HSV-2(G) [2] = conditions: plaque reduction in Vero cells, cited from earlier work
RAT BONE MARROW CELLS = experiment: Inhibition of thymidine incorporation into DNA; type: cell-based; conditions: Bone marrow cell, read-out: ED50 FOR […] INC[…] DNA, RAT BONE MARROW CELLS, read-out: ED50 FOR INHIBITING THYMIDINE INCORPORATION INTO DNA, RAT BONE MARROW CELLS
VERO = experiment: Incorporation of 2-14C-labeled nucleoside into DNA of cells; type: cell-based, African green monkey; conditions: FEAU also not detectable at 100 μM
Source text: (§2) There was no detectable incorporation of FEAU radioactivity into the DNA of either L-1210 or Vero cell lines, but substantial amounts of FMAU radioactivity were incorporated into the DNA of both cell lines. When HSV-1 infected Vero cells were exposed to ¹⁴C-labeled FEAU and FMAU, both nucleosides incorporated into the DNA of these virus-infected cells.

[3] = test system: HSV-1 INFECTED VERO CELLS; experiment: as above; type: cell-based, African green monkey; conditions: [2-14C] labeled nucleoside
Source text: as §2

[4] = test system: woodchuck hepatitis virus (WHV); experiment: Inhibition of WHV replication in chronically infected woodchucks (DNA polymerase activity); type: in vivo, woodchucks (Marmota monax); conditions: for WHV replication by day 60: all 5 animals
Protocol: All woodchucks bearing chronic active hepatitis virus (Hantz, supra) were administered FMAU twice daily by interperitoneal injections of FMAU in the following dosages:
Studies were then undertaken to evaluate FMAU and FEAU in this animal model using woodchucks naturally chronically-infected with woodchuck hepatitis virus (24). It was assumed that these nucleosides would be anabolized to their nucleoside triphosphates within the animal. WHV replication was measured periodically by the endogenous DNA polymerase activity and by the detection of WHV DNA by the dot-blot hybridization assay. Three different dosages of FMAU and FEAU were investigated. FMAU at 2 mg/kg/day x 5, (given intraperitoneally TABLE VIII
In accordance with the procedures of Example 2, the FEAU inhibition of WHV replication was further studied at different doses administered orally to woodchucks through stomach tubes. Two groups of woodchucks with different initial WHV replication values were examined.
Seven woodchucks with high WHV replication were tested. High replication was defined as over 1000 counts per minute of DNA polymerase activity, and the mean replication was 1600.
Seven woodchucks with low WHV replication were tested. Low replication was defined as lower than 1000 counts per minute of DNA polymerase activity, and the mean replication was 600-800.

HSV-2(G) [5] = experiment: Plaque reduction assay in Vero cells; type: cell-based; conditions: monkey
Source text: (§3) With FMAU as a lead compound, the syntheses of other 5-alkyl substituted 2′-fluoro-ara-uracils were undertaken (8, 9), including 1-(2′-deoxy-2′-fluoro-beta-D-arabinofuranosyl)-5-ethyluracil [FEAU].

HSV-1(F) = experiment: Plaque reduction assay in Vero cells; type: cell-based; conditions: monkey
Source text: as §3

HL-60 CELLS = experiment: Inhibition of cell growth; type: cell-based; conditions: Homo sapiens, HL-60, read-out: ED50 FOR INHIBITING CELL GROWTH IN HL-60 CELLS
Vero cells [6] = conditions: cytotoxic effect measured in rapidly dividing cells; read-out: ID₅₀; cited from earlier work
Vero cells [7] = experiment: Inhibition of cell growth; type: cell-based, African green monkey; conditions: Chlorocebus sabaeus, read-out: ED50 FOR INHIBITING CELL GROWTH IN VERO CELLS
L-1210 CELLS = experiment: Inhibition of thymidine incorporation into DNA; type: cell-based, rodent; conditions: Mus musculus, L1210, read-out: ED50 FOR […] INC[…] DNA, L-1210 CELLS; read-out: ED50 FOR INHIBITING THYMIDINE INCORPORATION INTO DNA, L-1210 CELLS
[8] = 0.2 mg/kg/day, FMAU x 5, FEAU x 10

## CCc1cn([C@@H]2O[C@H](CO)[C@@H](O)[C@@H]2F)c(=O)[nH]c1=O [FEAU, 1-(2'-deoxy-2'-fluoro-beta-D-arabino-furanosyl)-5-ethyl-uracil]
HL-60 CELLS MIT[…]
  PERCENTAGE RATES OF PHOSPHORYLATION (RELATIVE TO THYMIDINE), HL-60 CELLS MITOCHONDRIAL TK: 219.0%
HSV-2 (STRAIN 333) TK
  PERCENTAGE RATES OF PHOSPHORYLATION (RELATIVE TO THYMIDINE), HSV-2 (STRAIN 333) TK: 203.2% and 146.6%
HSV-1 (STRAIN KOS) TK
  PERCENTAGE RATES OF PHOSPHORYLATION (RELATIVE TO THYMIDINE), HSV-1 (STRAIN KOS) TK: 82.7% and 42.0%
[1]; in vivo experiments with mice
  toxicity: relatively nontoxic
[1]; normal (uninfected) mice, 800 mg/kg/day given twice daily for 4 days
  toxicity: non-toxic
P-815 CELLS
  EC50: 700 µM
HSV-2(G) [2]; read-out: HSV-2(G) ED₅₀
  EC50: 0.24 µM
HSV-2(G) [2]; read-out: HSV-2(G) ED₉₀
  EC90: 0.91 µM
RAT BONE MARROW CELLS
  EC50: 3700 µM
VERO
  INCORPORATION INTO DNA AT 10μM, VERO: NOT DETECTABLE*
[3]
  INCORPORATION INTO DNA AT 10μM, HSV-1 INFECTED VERO CELLS: 0.48 p MOLE/10^6 CELLS/HR
[4]; 0.04 mg/kg/day x 10
  anti-WHV effect: somewhat diminished anti-WHV effect
[4]; [8]
  suppression of viral replication: equally effective
  toxicity: nontoxic
[4]; 0.2 or 2 mg doses, slow return to pretreatment levels
  inhibitory activity after cessation of drug administration: remained significant over a six-week period
[4]; high replication woodchucks (>1000 cpm), oral 0.2 mg/kg/day, four of five still above normal level (50 cpm)
  WHV replication by the twenty-third day: lowered replication values
[4]; high replication woodchucks, oral 0.2 mg/kg/day, raised to 1 mg/kg/day on day 24 in four of five
  WHV replication by day 60: completely inhibited
[4]; i.p. 2 mg/kg/day x 10
  WHV replication: almost immediate suppression
[4]; in vivo
  weight loss: about 10%
[4]; in vivo, ip, 2 mg/kg/day
  toxicity: did not exhibit any toxic effects
[4]; in vivo, po, 0.2 mg/kg/day
  toxicity: without any observed toxicity
[4]; low replication woodchucks (<1000 cpm), oral 0.04 mg/kg/day, two of five still above normal level
  WHV replication by the twenty-third day: lowered replication values
[4]; low replication woodchucks, oral 0.04 mg/kg/day, raised to 0.2 mg/kg/day on day 24 in two of five
  WHV replication by day 60: completely inhibited
[4]; oral administration, 0.2 mg/kg/day x 10, one woodchuck, preliminary
  WHV replication: significant suppression
Toxicity in dogs; 50 mg/kg/day x 10, preliminary studies
  toxicity: moderate toxicity
Toxicity in dogs; FMAU i.v. x 5, FEAU x 10 (preliminary)
  lethal dose: 100 mg/kg/day
HSV-2(G) [5]
  THER. INDEX ID₅₀/ED₉₀ HSV-2: 220
HSV-1(F)
  THER. INDEX ID₅₀/ED₉₀ HSV-1: 769
HL-60 CELLS
  EC50: 2060 µM
Vero cells [6]
  CC50: 200 µM
Vero cells [7]
  EC50: > 200 µM
L-1210 CELLS
  EC50: 630 µM
